How the values were obtained:
[1] = Toxicity in iv dosed ICR mouse administered 7 to 8 doses at 10 secs for each dose; type: organism-based; conditions: in vivo
Rattus norvegicus [2] = species: Rattus norvegicus; experiment: Displacement of [35S]TBPS from GABAA receptor in Wistar rat cerebral cortex membranes after 3 hrs by scintillation counting method; conditions: Membrane
Mus musculus [3] = experiment: Anesthetic activity in iv dosed ICR mouse assessed as loss of righting reflex administered 7 to 8 doses at 10 secs for each dose; type: functional
Mus musculus [4] = experiment: Anesthetic activity in iv dosed ICR mouse assessed as recovery time of righting reflex by measuring the ability to grip and climb a steel frame and ambulated normally administered 7 to 8 doses at 10 secs for each dose; type: functional
Rattus norvegicus [5] = species: Rattus norvegicus; experiment: Displacement of [35S]TBPS from GABAA receptor in Wistar rat cerebral cortex membranes at 10 uM after 3 hrs by scintillation counting method; conditions: Membrane
Mus musculus [6] = experiment: Anesthetic activity in iv dosed ICR mouse assessed as dose required to produce 10 min of anesthesia administered 7 to 8 doses at 10 secs for each dose; type: functional
Mus musculus [7] = experiment: Anesthetic activity in iv dosed ICR mouse assessed as anesthetic duration time administered 7 to 8 doses at 10 secs for each dose; type: functional
Mus musculus [8] = experiment: Anesthetic activity in iv dosed ICR mouse assessed as onset time for loss of righting reflex administered 7 to 8 doses at 10 secs for each dose; type: functional
Rattus norvegicus [9] = species: Rattus norvegicus; experiment: Displacement of [35S]TBPS from GABAA receptor in Wistar rat cerebral cortex membranes at 1 uM after 3 hrs by scintillation counting method; conditions: Membrane
[10] = Therapeutic index, ratio of LD50 for toxicity in mouse to ED50 for anesthetic effect in mouse
Mus musculus [11] = experiment: Anesthetic activity in mouse model assessed as loss of righting reflex; type: functional
[12] = Toxicity in mouse; type: organism-based; conditions: in vivo
Rattus norvegicus [13] = species: Rattus norvegicus; conditions: in vivo, iv, 1 mg/kg
[14] = Volume of distribution at steady state in Sprague-Dawley rat at 1 mg/kg, iv by LC-MS/MS analysis; type: ADME, organism-based; conditions: in vivo, read-out: Vdss
Rattus norvegicus [15] = experiment: Cmax in Sprague-Dawley rat at 1 mg/kg, iv by LC-MS/MS analysis; type: ADME, organism-based; set-up: dose 1 mg/kg, route intravenous; conditions: in vivo

SMILES | LD50 at 10 s [1] [mg/kg] | inhibition (Rattus norvegicus [2]) | ED50 (Mus musculus [3]) [mg/kg] | Time (Mus musculus [4]) [s] | inhibition (Rattus norvegicus [5]) [%] | Activity (Mus musculus [6]) [mg/kg] | Time (Mus musculus [7]) [s] | Time (Mus musculus [8]) [s] | inhibition (Rattus norvegicus [9]) [%] | Ratio LD50/ED50 [10] | ED50 (Mus musculus [11]) [mg/kg] | LD50 [12] [mg/kg] | AUCt (Rattus norvegicus [13]) [ng·h/mL] | Vd [14] [L/kg] | Cmax (Rattus norvegicus [15]) [ng/mL]
CC[C@@H](C)c1cccc([C@@H](C)C2CC2)c1O | 8.3 | Dose-dependent effect | 1.3 | 192.33 | 63 | 4 | 418 | <10 | -1 | – | – | – | – | – | –
C[C@H](c1cccc([C@H](C)C2CC2)c1O)C1CC1 | 43.6 | Dose-dependent effect | 5.9 | 24.5 | 78 | 20 | 492.17 | <10 | -5 | – | – | – | – | – | –
CC[C@H](C)c1cccc([C@H](C)C2CC2)c1OCOP(=O)([O-])[O-].[Na+].[Na+] | – | – | – | – | – | – | – | – | – | 3.8 | 24.3 | 91.8 | – | – | –
CC(C)c1cccc(C(C)C2CC2)c1O (racemic) | – | Dose-dependent effect | – | 78 | 3 | 10 | 518.5 | <10 | – | – | – | – | – | – | –
CC(C)c1cccc([C@H](C)C2CCC2)c1O | – | – | – | 89.11 | – | – | 443.5 | <10 | – | – | – | – | – | – | –
CCC(C)c1cccc(C(C)C2CC2)c1O (racemic) | – | Dose-dependent effect | – | 130.71 | 74 | 20 | 418.14 | <10 | -3 | – | – | – | – | – | –
CC(c1ccccc1O)C1CC1 (racemic) | 64.8 | – | 14 | 329.6 | – | 30 | 598 | <10 | – | – | – | – | – | – | –
CC(c1cccc(C2(C)CC2)c1O)C1CC1 (racemic) | 40 | – | – | 306.13 | – | 45 | 365.75 | 9.5 | – | – | – | – | – | – | –
CCc1cccc(C(C)C2CC2)c1O (racemic) | 57.1 | – | 7.7 | 226.57 | – | – | 409.57 | <10 | – | – | – | – | – | – | –
CC[C@H](C)c1cccc([C@H](C)C2CC2)c1O | 65.4 | Dose-dependent effect | – | 363.67 | 34 | 20 | 545 | <10 | -9 | – | – | – | – | – | –
CC(C)c1cccc(C(C)C2CCCC2)c1O (racemic) | 115 | – | 19.9 | 441.6 | – | 40 | 737.33 | 5 | – | – | – | – | – | – | –
CC(C)c1cccc(C(C)C)c1O [PROPOFOL] | – | Dose-dependent effect | – | 50 | 10 | 25 | 303.2 | <10 | – | – | – | – | 76.9 | 5.23 | 384
CC(c1cccc(C2CC2)c1O)C1CC1 (racemic) | 80 | – | 14.6 | 193.63 | – | – | 500.67 | <10 | – | – | – | – | – | – | –
CC[C@H](C)c1cccc([C@@H](C)C2CC2)c1O | – | Dose-dependent effect | – | 224 | 47 | 10 | 643.4 | <10 | 5 | – | – | – | – | – | –
CC(C)c1cccc([C@@H](C)C2CCC2)c1O | 107 | – | – | 191.8 | – | 100 | 450.43 | 15.63 | – | – | – | – | – | – | –
COc1cccc(C(C)C2CC2)c1O (racemic) | – | – | 7.4 | 79 | – | – | 364.14 | <10 | – | – | – | – | – | – | –
C[C@H](c1cccc([C@@H](C)C2CC2)c1O)C1CC1 | 149 | Dose-dependent effect | 19.5 | 150.8 | 35 | 40 | 567.33 | 7 | – | – | – | – | – | – | –
CCC(c1cccc(C(C)C2CC2)c1O)C1CC1 (racemic) | 74.7 | – | 9 | 205.8 | – | 20 | 670.13 | 7.5 | – | – | – | – | – | – | –
CC(C)c1cccc(C(C2CC2)C2CC2)c1O | > 100 | – | – | 220.17 | – | 50 | 2616.4 | <10 | – | – | – | – | – | – | –
CC(C)c1cccc([C@@H](C)C2CC2)c1O | 50 | Dose-dependent effect | 7.9 | 168.33 | 9 | 30 | 344 | 5.71 | 3 | – | – | – | – | – | –
CC(C)c1cccc([C@@H](C)C2CC2)c1OCOP(=O)([O-])[O-].[Na+].[Na+] | – | – | – | – | – | – | – | – | – | 4.5 | 82.7 | – | – | – | –
C[C@H](c1cccc([C@H](C)C2CC2)c1OCOP(=O)([O-])[O-])C1CC1.[Na+].[Na+] | – | – | – | – | – | – | – | – | – | 4 | 35.8 | – | – | – | –
CC(C)c1cccc(C(C)C2CCC2)c1O (racemic) | 40 | – | – | 46 | – | – | 364 | 43.5 | – | – | – | – | – | – | –
C[C@H](c1cccc([C@@H](C)C2CC2)c1OCOP(=O)([O-])[O-])C1CC1.[Na+].[Na+] | – | – | – | – | – | – | – | – | – | 2.9 | 94.7 | – | – | – | –
CC[C@@H](C)c1cccc([C@H](C)CC)c1O | 23.8 | Dose-dependent effect | 2.69 | 39.83 | 29 | 10 | 459.83 | 18 | 0 | – | – | – | – | – | –
Cc1cccc(C(C)C2CC2)c1O (racemic) | 54.9 | – | 7.4 | 122 | – | – | 198.33 | <10 | – | – | – | – | – | – | –
CC[C@@H](C)c1cccc([C@H](C)C2CC2)c1OCOP(=O)([O-])[O-].[Na+].[Na+] | – | – | – | – | – | – | – | – | – | 4 | 15.9 | 63.7 | – | – | –
CC(c1cccc(C(C)C2CC2)c1O)C1CC1 (racemic) | > 15 | Dose-dependent effect | – | 233.83 | 91 | – | 563.63 | <10 | 13 | – | – | – | – | – | –
CCC(c1cccc(C(C)C)c1O)C1CC1 (racemic) | 53.2 | – | 6.2 | 50.38 | – | – | 523.57 | 13.6 | – | – | – | – | – | – | –
CC(c1cccc(C(C2CC2)C2CC2)c1O)C1CC1 (racemic) | 98.2 | – | 9.8 | 326.5 | – | 20 | 761.33 | <10 | – | – | – | – | – | – | –

From ChEMBL document CHEMBL4043087 (J Med Chem, 2017)
